According to ChEMBL document CHEMBL5236671, “Synthesis and biological evaluation of novel aromatic amide derivatives as potential BCR-ABL inhibitors” (Bioorg Med Chem Lett, 2023):
Active and inactive are the calls of the source. No cut-off for these calls is given here.

Tested on: K562
Assay: Induction of apoptosis in human K562 cells assessed as late apoptotic cells at 5 uM incubated for 24 hrs by Annexin V-FITC staining based flow cytometric analysis (reference value: 1.82 % )
Format: functional
Conditions: not given

| SMILES | Activity |
| --- | --- |
| Cc1cn(-c2cc(NC(=O)c3ccc(CN4CCN(C(C)(C)C)CC4)cc3)cc(C(F)(F)F)c2)cn1 | 22.68% |

Tested on: K562
Assay: Antimigratory activity against human K562 cells assessed as decrease in cell migration at 2.5 to 10 uM
Format: functional, cell-based
Conditions: dose 2.5-10 µM

| SMILES | Activity |
| --- | --- |
| CCCCN1CCN(Cc2ccc(C(=O)Nc3cc(-n4cnc(C)c4)cc(C(F)(F)F)c3)cc2)CC1 | Active |
| Cc1cn(-c2cc(NC(=O)c3ccc(CN4CCN(C(C)(C)C)CC4)cc3)cc(C(F)(F)F)c2)cn1 | Active |

Tested on: K562
Assay: Induction of apoptosis in human K562 cells assessed as increase in cleaved caspase-3 expression by Western blot analysis
Format: functional, cell-based
Conditions: dose 2.5-10 µM

| SMILES | Activity |
| --- | --- |
| CCCCN1CCN(Cc2ccc(C(=O)Nc3cc(-n4cnc(C)c4)cc(C(F)(F)F)c3)cc2)CC1 | Dose-Dependent Effect |
| Cc1cn(-c2cc(NC(=O)c3ccc(CN4CCN(C(C)(C)C)CC4)cc3)cc(C(F)(F)F)c2)cn1 | Dose-Dependent Effect |

Biological target: Tyrosine-protein kinase ABL1 (Homo sapiens) (UniProt P00519)
Assay: Inhibition of ABL1 phosphorylation in human K562 cells at 2.5 to 10 uM by Western blot analysis
Format: cell-based
Conditions: dose 2.5-10 µM

Sequence of Tyrosine-protein kinase ABL1 (Homo sapiens) (P00519 whole entry): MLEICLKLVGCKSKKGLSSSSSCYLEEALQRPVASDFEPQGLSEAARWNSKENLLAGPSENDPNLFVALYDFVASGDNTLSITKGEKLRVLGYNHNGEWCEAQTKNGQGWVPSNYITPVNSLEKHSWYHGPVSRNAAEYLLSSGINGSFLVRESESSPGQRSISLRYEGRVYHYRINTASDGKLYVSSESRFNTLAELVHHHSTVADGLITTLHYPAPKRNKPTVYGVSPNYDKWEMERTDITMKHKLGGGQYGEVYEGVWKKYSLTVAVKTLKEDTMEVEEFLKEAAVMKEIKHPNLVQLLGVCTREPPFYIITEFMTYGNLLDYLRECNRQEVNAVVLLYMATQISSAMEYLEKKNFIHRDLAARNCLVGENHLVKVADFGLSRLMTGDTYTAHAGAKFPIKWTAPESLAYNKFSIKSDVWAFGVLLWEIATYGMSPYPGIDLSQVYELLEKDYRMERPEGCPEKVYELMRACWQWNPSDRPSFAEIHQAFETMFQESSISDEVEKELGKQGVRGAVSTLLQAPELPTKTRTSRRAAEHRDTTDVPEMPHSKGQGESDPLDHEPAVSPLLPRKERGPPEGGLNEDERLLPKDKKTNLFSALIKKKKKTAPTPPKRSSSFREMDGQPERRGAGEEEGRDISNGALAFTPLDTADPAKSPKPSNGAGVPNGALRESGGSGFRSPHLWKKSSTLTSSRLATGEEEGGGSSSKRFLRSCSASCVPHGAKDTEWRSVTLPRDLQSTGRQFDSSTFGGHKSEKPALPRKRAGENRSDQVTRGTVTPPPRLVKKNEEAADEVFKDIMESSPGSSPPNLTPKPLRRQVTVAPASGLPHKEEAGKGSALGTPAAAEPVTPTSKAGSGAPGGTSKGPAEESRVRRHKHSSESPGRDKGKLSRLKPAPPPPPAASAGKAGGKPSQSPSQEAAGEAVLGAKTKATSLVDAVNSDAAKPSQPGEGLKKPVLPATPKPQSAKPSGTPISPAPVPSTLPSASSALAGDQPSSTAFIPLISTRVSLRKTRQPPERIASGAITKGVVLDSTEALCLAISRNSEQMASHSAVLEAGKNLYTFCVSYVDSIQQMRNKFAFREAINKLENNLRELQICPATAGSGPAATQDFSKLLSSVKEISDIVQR

| SMILES | inhibition |
| --- | --- |
| CCCCN1CCN(Cc2ccc(C(=O)Nc3cc(-n4cnc(C)c4)cc(C(F)(F)F)c3)cc2)CC1 | Active |
| Cc1cn(-c2cc(NC(=O)c3ccc(CN4CCN(C(C)(C)C)CC4)cc3)cc(C(F)(F)F)c2)cn1 | Active |

Tested on: K562
Assay: Antitumor activity against human K562 cells assessed as inhibition of cell growth
Format: functional, cell-based
Conditions: not given

| SMILES | IC50 |
| --- | --- |
| Cc1cn(-c2cc(NC(=O)c3ccc(CN4CCN(C)CC4)cc3)ccc2C)cn1 | 39.7 µM |
| Cc1cn(-c2cc(NC(=O)c3ccc(CN4CCOC[C@@H]4C)cc3)cc(C(F)(F)F)c2)cn1 | 24.1 µM |
| CCCCN1CCN(Cc2ccc(C(=O)Nc3ccc(C)c(-n4cnc(C)c4)c3)cc2)CC1 | 33.2 µM |
| CCCCN1CCN(Cc2ccc(C(=O)Nc3cc(-n4cnc(C)c4)cc(C(F)(F)F)c3)cc2)CC1 | 6.03 µM |
| Cc1cn(-c2cc(NC(=O)c3ccc(CN4CCN(C(C)(C)C)CC4)cc3)cc(C(F)(F)F)c2)cn1 | 5.66 µM |
| Cc1cn(-c2cccc(NC(=O)c3ccc(CN4CCN(C)CC4)cc3)c2)c(C)n1 | 15.8 µM |

Results, then the molecule that gave them:

| IC50 | SMILES |
| --- | --- |
| 14 µM | Cc1ccc(NC(=O)c2ccc(CN3CCN(C)CC3)cc2)cc1Nc1nccc(-c2cccnc2)n1 [IMATINIB] |
| > 50 µM | CC(=O)N1CCN(Cc2ccc(C(=O)Nc3cc(-n4cnc(C)c4)cc(C(F)(F)F)c3)cc2)CC1 |
| 10.5 µM | Cc1cn(-c2cc(NC(=O)c3ccc(CN4CCN(C(C)C)CC4)cc3)cc(C(F)(F)F)c2)cn1 |
| 13.4 µM | Cc1cn(-c2cc(NC(=O)c3ccc(CN4CCCC4)cc3)cc(C(F)(F)F)c2)cn1 |

Tested on: K562
Assay: Induction of apoptosis in human K562 cells assessed as increase in caspase-3 expression by Western blot analysis
Format: functional, cell-based
Conditions: dose 2.5-10 µM

| SMILES | Activity |
| --- | --- |
| CCCCN1CCN(Cc2ccc(C(=O)Nc3cc(-n4cnc(C)c4)cc(C(F)(F)F)c3)cc2)CC1 | Dose-Dependent Effect |
| Cc1cn(-c2cc(NC(=O)c3ccc(CN4CCN(C(C)(C)C)CC4)cc3)cc(C(F)(F)F)c2)cn1 | Dose-Dependent Effect |

Tested on: K562
Assay: Induction of apoptosis in human K562 cells assessed as necrotic cells at 10 uM incubated for 24 hrs by Annexin V-FITC staining based flow cytometric analysis (reference value: 0.82 % )
Format: functional
Conditions: not given

| SMILES | Activity |
| --- | --- |
| Cc1ccc(NC(=O)c2ccc(CN3CCN(C)CC3)cc2)cc1Nc1nccc(-c2cccnc2)n1 [IMATINIB] | 0.2% |
| Cc1cn(-c2cc(NC(=O)c3ccc(CN4CCN(C(C)(C)C)CC4)cc3)cc(C(F)(F)F)c2)cn1 | 4.56% |

Tested on: HL-60
Assay: Antitumor activity against human HL-60 cells assessed as inhibition of cell growth
Format: functional, cell-based
Conditions: not given

| SMILES | IC50 |
| --- | --- |
| Cc1cn(-c2cc(NC(=O)c3ccc(CN4CCN(C)CC4)cc3)ccc2C)cn1 | > 50 µM |
| Cc1cn(-c2cc(NC(=O)c3ccc(CN4CCOC[C@@H]4C)cc3)cc(C(F)(F)F)c2)cn1 | 16.9 µM |
| CCCCN1CCN(Cc2ccc(C(=O)Nc3ccc(C)c(-n4cnc(C)c4)c3)cc2)CC1 | > 50 µM |
| CCCCN1CCN(Cc2ccc(C(=O)Nc3cc(-n4cnc(C)c4)cc(C(F)(F)F)c3)cc2)CC1 | 17.9 µM |
| Cc1cn(-c2cc(NC(=O)c3ccc(CN4CCN(C(C)(C)C)CC4)cc3)cc(C(F)(F)F)c2)cn1 | 16.8 µM |
| Cc1cn(-c2cccc(NC(=O)c3ccc(CN4CCN(C)CC4)cc3)c2)c(C)n1 | 36 µM |

More lines, now with the values ahead:

| IC50 | SMILES |
| --- | --- |
| 17.2 µM | Cc1ccc(NC(=O)c2ccc(CN3CCN(C)CC3)cc2)cc1Nc1nccc(-c2cccnc2)n1 [IMATINIB] |
| > 50 µM | CC(=O)N1CCN(Cc2ccc(C(=O)Nc3cc(-n4cnc(C)c4)cc(C(F)(F)F)c3)cc2)CC1 |
| 14.8 µM | Cc1cn(-c2cc(NC(=O)c3ccc(CN4CCN(C(C)C)CC4)cc3)cc(C(F)(F)F)c2)cn1 |
| 24.9 µM | Cc1cn(-c2cc(NC(=O)c3ccc(CN4CCCC4)cc3)cc(C(F)(F)F)c2)cn1 |

Tested on: K562
Assay: Induction of apoptosis in human K562 cells assessed as viable cells at 5 uM incubated for 24 hrs by Annexin V-FITC staining based flow cytometric analysis (reference value: 93.4 % )
Format: functional
Conditions: read-out: Activity

| SMILES | viability at 5 µM |
| --- | --- |
| Cc1cn(-c2cc(NC(=O)c3ccc(CN4CCN(C(C)(C)C)CC4)cc3)cc(C(F)(F)F)c2)cn1 | 71.1% |

Tested on: K562
Assay: Induction of apoptosis in human K562 cells assessed as total apoptotic cells at 10 uM incubated for 24 hrs by Annexin V-FITC staining based flow cytometric analysis (reference value: 5.72 % )
Format: functional
Conditions: not given

| SMILES | Activity |
| --- | --- |
| Cc1ccc(NC(=O)c2ccc(CN3CCN(C)CC3)cc2)cc1Nc1nccc(-c2cccnc2)n1 [IMATINIB] | 23.1% |
| Cc1cn(-c2cc(NC(=O)c3ccc(CN4CCN(C(C)(C)C)CC4)cc3)cc(C(F)(F)F)c2)cn1 | 37.58% |

Tested on: K562
Assay: Induction of apoptosis in human K562 cells assessed as early apoptotic cells at 10 uM incubated for 24 hrs by Annexin V-FITC staining based flow cytometric analysis (reference value: 3.90 % )
Format: functional
Conditions: not given

| SMILES | Activity |
| --- | --- |
| Cc1ccc(NC(=O)c2ccc(CN3CCN(C)CC3)cc2)cc1Nc1nccc(-c2cccnc2)n1 [IMATINIB] | 4.9% |
| Cc1cn(-c2cc(NC(=O)c3ccc(CN4CCN(C(C)(C)C)CC4)cc3)cc(C(F)(F)F)c2)cn1 | 3.02% |

Tested on: K562
Assay: Induction of apoptosis in human K562 cells assessed as viable cells at 2.5 uM incubated for 24 hrs by Annexin V-FITC staining based flow cytometric analysis (reference value: 93.4 % )
Format: functional
Conditions: read-out: Activity

| SMILES | viability at 2.5 µM |
| --- | --- |
| Cc1cn(-c2cc(NC(=O)c3ccc(CN4CCN(C(C)(C)C)CC4)cc3)cc(C(F)(F)F)c2)cn1 | 86.3% |

Tested on: K562
Assay: Induction of apoptosis in human K562 cells assessed as necrotic cells at 2.5 uM incubated for 24 hrs by Annexin V-FITC staining based flow cytometric analysis (reference value: 0.82 % )
Format: functional
Conditions: not given

| SMILES | Activity |
| --- | --- |
| Cc1cn(-c2cc(NC(=O)c3ccc(CN4CCN(C(C)(C)C)CC4)cc3)cc(C(F)(F)F)c2)cn1 | 1% |

Tested on: K562
Assay: Induction of apoptosis in human K562 cells assessed as viable cells at 10 uM incubated for 24 hrs by Annexin V-FITC staining based flow cytometric analysis (reference value: 93.4 % )
Format: functional
Conditions: read-out: Activity

| SMILES | viability at 10 µM |
| --- | --- |
| Cc1ccc(NC(=O)c2ccc(CN3CCN(C)CC3)cc2)cc1Nc1nccc(-c2cccnc2)n1 [IMATINIB] | 76.7% |
| Cc1cn(-c2cc(NC(=O)c3ccc(CN4CCN(C(C)(C)C)CC4)cc3)cc(C(F)(F)F)c2)cn1 | 57.9% |

Biological target: Crk-like protein (Homo sapiens) (UniProt P46109)
Assay: Inhibition of CRKL phosphorylation in human K562 cells at 2.5 to 10 uM by Western blot analysis
Format: cell-based
Conditions: dose 2.5-10 µM

Sequence of Crk-like protein (Homo sapiens) (P46109 whole entry): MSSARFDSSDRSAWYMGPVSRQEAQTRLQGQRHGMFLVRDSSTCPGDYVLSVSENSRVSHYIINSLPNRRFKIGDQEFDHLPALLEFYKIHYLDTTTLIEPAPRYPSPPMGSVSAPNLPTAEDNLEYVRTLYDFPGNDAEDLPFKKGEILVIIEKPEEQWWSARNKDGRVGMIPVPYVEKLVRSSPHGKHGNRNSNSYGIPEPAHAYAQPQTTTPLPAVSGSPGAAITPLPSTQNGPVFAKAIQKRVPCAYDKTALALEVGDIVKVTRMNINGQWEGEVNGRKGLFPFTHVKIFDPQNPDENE

| SMILES | inhibition |
| --- | --- |
| CCCCN1CCN(Cc2ccc(C(=O)Nc3cc(-n4cnc(C)c4)cc(C(F)(F)F)c3)cc2)CC1 | Active |
| Cc1cn(-c2cc(NC(=O)c3ccc(CN4CCN(C(C)(C)C)CC4)cc3)cc(C(F)(F)F)c2)cn1 | Active |

Tested on: K562
Assay: Induction of apoptosis in human K562 cells assessed as late apoptotic cells at 10 uM incubated for 24 hrs by Annexin V-FITC staining based flow cytometric analysis (reference value: 1.82 % )
Format: functional
Conditions: not given

| SMILES | Activity |
| --- | --- |
| Cc1ccc(NC(=O)c2ccc(CN3CCN(C)CC3)cc2)cc1Nc1nccc(-c2cccnc2)n1 [IMATINIB] | 18.2% |
| Cc1cn(-c2cc(NC(=O)c3ccc(CN4CCN(C(C)(C)C)CC4)cc3)cc(C(F)(F)F)c2)cn1 | 34.56% |

Tested on: K562
Assay: Induction of apoptosis in human K562 cells assessed as necrotic cells at 5 uM incubated for 24 hrs by Annexin V-FITC staining based flow cytometric analysis (reference value: 0.82 % )
Format: functional
Conditions: not given

| SMILES | Activity |
| --- | --- |
| Cc1cn(-c2cc(NC(=O)c3ccc(CN4CCN(C(C)(C)C)CC4)cc3)cc(C(F)(F)F)c2)cn1 | 3.44% |

Tested on: K562
Assay: Induction of apoptosis in human K562 cells assessed as late apoptotic cells at 2.5 uM incubated for 24 hrs by Annexin V-FITC staining based flow cytometric analysis (reference value: 1.82 % )
Format: functional
Conditions: not given

| SMILES | Activity |
| --- | --- |
| Cc1cn(-c2cc(NC(=O)c3ccc(CN4CCN(C(C)(C)C)CC4)cc3)cc(C(F)(F)F)c2)cn1 | 10.84% |

Tested on: K562
Assay: Induction of apoptosis in human K562 cells assessed as early apoptotic cells at 5 uM incubated for 24 hrs by Annexin V-FITC staining based flow cytometric analysis (reference value: 3.90 % )
Format: functional
Conditions: not given

| SMILES | Activity |
| --- | --- |
| Cc1cn(-c2cc(NC(=O)c3ccc(CN4CCN(C(C)(C)C)CC4)cc3)cc(C(F)(F)F)c2)cn1 | 2.8% |

Tested on: MCF7
Assay: Antitumor activity against human MCF7 cells assessed as inhibition of cell growth
Format: functional, cell-based
Conditions: not given

| SMILES | IC50 |
| --- | --- |
| Cc1cn(-c2cc(NC(=O)c3ccc(CN4CCN(C)CC4)cc3)ccc2C)cn1 | > 50 µM |
| Cc1cn(-c2cc(NC(=O)c3ccc(CN4CCOC[C@@H]4C)cc3)cc(C(F)(F)F)c2)cn1 | 24.2 µM |
| CCCCN1CCN(Cc2ccc(C(=O)Nc3ccc(C)c(-n4cnc(C)c4)c3)cc2)CC1 | > 50 µM |
| CCCCN1CCN(Cc2ccc(C(=O)Nc3cc(-n4cnc(C)c4)cc(C(F)(F)F)c3)cc2)CC1 | 20.1 µM |
| Cc1cn(-c2cc(NC(=O)c3ccc(CN4CCN(C(C)(C)C)CC4)cc3)cc(C(F)(F)F)c2)cn1 | 23.5 µM |
| Cc1cn(-c2cccc(NC(=O)c3ccc(CN4CCN(C)CC4)cc3)c2)c(C)n1 | > 50 µM |

Further lines, results first:

| IC50 | SMILES |
| --- | --- |
| 25.6 µM | Cc1ccc(NC(=O)c2ccc(CN3CCN(C)CC3)cc2)cc1Nc1nccc(-c2cccnc2)n1 [IMATINIB] |
| > 50 µM | CC(=O)N1CCN(Cc2ccc(C(=O)Nc3cc(-n4cnc(C)c4)cc(C(F)(F)F)c3)cc2)CC1 |
| 13.1 µM | Cc1cn(-c2cc(NC(=O)c3ccc(CN4CCN(C(C)C)CC4)cc3)cc(C(F)(F)F)c2)cn1 |
| 37.9 µM | Cc1cn(-c2cc(NC(=O)c3ccc(CN4CCCC4)cc3)cc(C(F)(F)F)c2)cn1 |

Tested on: K562
Assay: Induction of apoptosis in human K562 cells assessed as early apoptotic cells at 2.5 uM incubated for 24 hrs by Annexin V-FITC staining based flow cytometric analysis (reference value: 3.90 % )
Format: functional
Conditions: not given

| SMILES | Activity |
| --- | --- |
| Cc1cn(-c2cc(NC(=O)c3ccc(CN4CCN(C(C)(C)C)CC4)cc3)cc(C(F)(F)F)c2)cn1 | 1.9% |
